Reference: PubChem BioAssay AID1259407 (Chemical Carcinogenesis Research Information System (CCRIS), 2018)
Active and inactive are the calls of the source. No rule for the calls is given here.

System: CCRIS mutagenicity, Ames/micronucleus/aberration tests
Assay: CCRIS mutagenicity studies
[1] = Test System: AMES SALMONELLA TYPHIMURIUM, Strain/Indicator: TA97, Metabolic Activation: NONE, Method: PREINCUBATION
[2] = Test System: AMES SALMONELLA TYPHIMURIUM, Strain/Indicator: TA97, Metabolic Activation: RAT, LIVER, S-9, AROCLOR 1254, Method: PREINCUBATION
[3] = Test System: AMES SALMONELLA TYPHIMURIUM, Strain/Indicator: TA98, Metabolic Activation: NONE, Method: STANDARD PLATE
[4] = Test System: AMES SALMONELLA TYPHIMURIUM, Strain/Indicator: TA98, Metabolic Activation: RAT, LIVER, S-9, AROCLOR 1254, Method: STANDARD PLATE
[5] = Test System: AMES SALMONELLA TYPHIMURIUM, Strain/Indicator: TA100, Metabolic Activation: NONE, Method: STANDARD PLATE
[6] = Test System: AMES SALMONELLA TYPHIMURIUM, Strain/Indicator: TA100, Metabolic Activation: RAT, LIVER, S-9, AROCLOR 1254, Method: STANDARD PLATE
[7] = Test System: AMES SALMONELLA TYPHIMURIUM, Strain/Indicator: TA102, Metabolic Activation: NONE, Method: PREINCUBATION
[8] = Test System: AMES SALMONELLA TYPHIMURIUM, Strain/Indicator: TA102, Metabolic Activation: RAT, LIVER, S-9, AROCLOR 1254, Method: PREINCUBATION
[9] = Test System: AMES SALMONELLA TYPHIMURIUM, Strain/Indicator: TA98, Metabolic Activation: NONE, Method: PREINCUBATION
[10] = Test System: AMES SALMONELLA TYPHIMURIUM, Strain/Indicator: TA100, Metabolic Activation: NONE, Method: PREINCUBATION
[11] = Test System: AMES SALMONELLA TYPHIMURIUM, Strain/Indicator: TA100, Metabolic Activation: RAT, LIVER, S-9, AROCLOR 1254, Method: PREINCUBATION

Q: For `CCCCCCCCCCCCCCCC(=O)OC[C@H](O)[C@H]1OC(=O)C(O)=C1O`, which mutagenic call [1] is on record?
A: inactive; negative

Q: What about the mutagenic call [2] of the same compound?
A: inactive; negative

Q: And the mutagenic call [3]?
A: inactive; negative

Q: What about the mutagenic call [4] of the same compound?
A: inactive; negative

Q: What about the mutagenic call [5] of the same compound?
A: inactive; negative

Q: And the mutagenic call [6]?
A: inactive; negative

Q: And the mutagenic call [7]?
A: inactive; negative

Q: And the mutagenic call [8]?
A: inactive; negative

Q: What about the mutagenic call (Test System: AMES SALMONELLA TYPHIMURIUM, Strain/Indicator: TA1535, Metabolic Activation: NONE, Method: STANDARD PLATE) of the same compound?
A: inactive; negative

Q: And the mutagenic call (Test System: AMES SALMONELLA TYPHIMURIUM, Strain/Indicator: TA1535, Metabolic Activation: RAT, LIVER, S-9, AROCLOR 1254, Method: STANDARD PLATE)?
A: inactive; negative

Q: What about the mutagenic call (Test System: AMES SALMONELLA TYPHIMURIUM, Strain/Indicator: TA1537, Metabolic Activation: NONE, Method: STANDARD PLATE) of the same compound?
A: inactive; negative

Q: And the mutagenic call (Test System: AMES SALMONELLA TYPHIMURIUM, Strain/Indicator: TA1537, Metabolic Activation: RAT, LIVER, S-9, AROCLOR 1254, Method: STANDARD PLATE)?
A: inactive; negative

Q: And the mutagenic call (Test System: AMES SALMONELLA TYPHIMURIUM, Strain/Indicator: TA1538, Metabolic Activation: NONE, Method: STANDARD PLATE)?
A: inactive; negative

Q: And the mutagenic call (Test System: AMES SALMONELLA TYPHIMURIUM, Strain/Indicator: TA1538, Metabolic Activation: RAT, LIVER, S-9, AROCLOR 1254, Method: STANDARD PLATE)?
A: inactive; negative

Q: What about the mutagenic call (Test System: E. COLI, Strain/Indicator: WP2, Metabolic Activation: NONE, Method: STANDARD PLATE) of the same compound?
A: inactive; negative

Q: What about the mutagenic call (Test System: E. COLI, Strain/Indicator: WP2, Metabolic Activation: RAT, LIVER, S-9, AROCLOR 1254, Method: STANDARD PLATE) of the same compound?
A: inactive; negative

Q: `c1cc2ccc3cc4cccc5ccc6cc(c1)c2c3c6c54` was tested. Which mutagenic call [6] did it give?
A: active; positive

Q: Which results are given for `CCN(CC)CCO`?
A: mutagenic call (Test System: AMES SALMONELLA TYPHIMURIUM, Strain/Indicator: TA98, Metabolic Activation: HAMSTER, LIVER, S-9, AROCLOR 1254 (10%), Method: PREINCUBATION): inactive; negative; mutagenic call [9]: inactive; negative; mutagenic call (Test System: AMES SALMONELLA TYPHIMURIUM, Strain/Indicator: TA98, Metabolic Activation: RAT, LIVER, S-9, AROCLOR 1254 (10%), Method: PREINCUBATION): inactive; negative; mutagenic call (Test System: AMES SALMONELLA TYPHIMURIUM, Strain/Indicator: TA100, Metabolic Activation: HAMSTER, LIVER, S-9, AROCLOR 1254 (10%), Method: PREINCUBATION): inactive; negative; mutagenic call [10]: inactive; negative; mutagenic call (Test System: AMES SALMONELLA TYPHIMURIUM, Strain/Indicator: TA100, Metabolic Activation: RAT, LIVER, S-9, AROCLOR 1254 (10%), Method: PREINCUBATION): inactive; negative; mutagenic call (Test System: AMES SALMONELLA TYPHIMURIUM, Strain/Indicator: TA1535, Metabolic Activation: HAMSTER, LIVER, S-9, AROCLOR 1254 (10%), Method: PREINCUBATION): inactive; negative; mutagenic call (Test System: AMES SALMONELLA TYPHIMURIUM, Strain/Indicator: TA1535, Metabolic Activation: NONE, Method: PREINCUBATION): inactive; negative; mutagenic call (Test System: AMES SALMONELLA TYPHIMURIUM, Strain/Indicator: TA1535, Metabolic Activation: RAT, LIVER, S-9, AROCLOR 1254 (10%), Method: PREINCUBATION): inactive; negative; mutagenic call (Test System: AMES SALMONELLA TYPHIMURIUM, Strain/Indicator: TA1537, Metabolic Activation: HAMSTER, LIVER, S-9, AROCLOR 1254 (10%), Method: PREINCUBATION): inactive; negative; mutagenic call (Test System: AMES SALMONELLA TYPHIMURIUM, Strain/Indicator: TA1537, Metabolic Activation: NONE, Method: PREINCUBATION): inactive; negative; mutagenic call (Test System: AMES SALMONELLA TYPHIMURIUM, Strain/Indicator: TA1537, Metabolic Activation: RAT, LIVER, S-9, AROCLOR 1254 (10%), Method: PREINCUBATION): inactive; negative

Q: How did the mutagenic call [4] turn out when `Cc1cnc2c(n1)c(C)c(C)c1c2nc(N)n1C` was run?
A: active; positive

Q: With `O.O.O.O=C([O-])COc1ccccc1.O=C([O-])COc1ccccc1.[Cu+2]` as the compound, how does the mutagenic call [1] read?
A: inactive; negative

Q: What about the mutagenic call [2] of the same compound?
A: inactive; negative

Q: What about the mutagenic call [10] of the same compound?
A: inactive; negative

Q: What about the mutagenic call [11] of the same compound?
A: inactive; negative

Q: What about the mutagenic call [7] of the same compound?
A: inactive; negative

Q: And the mutagenic call [8]?
A: inactive; negative

Q: How did the mutagenic call [3] turn out when `c1ccc2c(c1)cc1c3c2ccc2cccc(c23)C1` was run?
A: inactive; negative

Q: What about the mutagenic call [4] of the same compound?
A: active; positive

Q: What about the mutagenic call [6] of the same compound?
A: active; positive

Q: For `O[C@H]1C=Cc2ccc3c(sc4ccccc43)c2[C@@H]1O`, which mutagenic call [11] is on record?
A: inactive; negative

Q: What does the source list for `CCc1cccc(CC)c1N`?
A: mutagenic call [9]: inactive; negative; mutagenic call [3]: inactive; negative; mutagenic call (Test System: AMES SALMONELLA TYPHIMURIUM, Strain/Indicator: TA98, Metabolic Activation: RAT, LIVER, MICROSOMES, PHENOBARBITAL, Method: PREINCUBATION): inactive; negative; mutagenic call [4]: active; positive; mutagenic call [10]: inactive; negative; mutagenic call [5]: inactive; negative; mutagenic call (Test System: AMES SALMONELLA TYPHIMURIUM, Strain/Indicator: TA100, Metabolic Activation: RAT, LIVER, MICROSOMES, PHENOBARBITAL, Method: PREINCUBATION): inactive; negative; mutagenic call [6]: active; positive; mutagenic call (Test System: Ames Salmonella typhimurium, Strain/Indicator: TA97, Metabolic Activation: None, Method: Suspension): active; positive; mutagenic call (Test System: Ames Salmonella typhimurium, Strain/Indicator: TA98, Metabolic Activation: None, Method: Suspension): active; positive; mutagenic call (Test System: Ames Salmonella typhimurium, Strain/Indicator: TA100, Metabolic Activation: None, Method: Preincubation): inactive; negative; mutagenic call (Test System: Ames Salmonella typhimurium, Strain/Indicator: TA1535, Metabolic Activation: None, Method: Suspension): inactive; negative; mutagenic call (Test System: Ames Salmonella typhimurium, Strain/Indicator: TA1537, Metabolic Activation: None, Method: Suspension): inactive; negative; mutagenic call (Test System: Ames Salmonella typhimurium, Strain/Indicator: TA1538, Metabolic Activation: None, Method: Suspension): active; positive (weak response; no dose response)

Q: For `CN[C@H]1CCc2cc(OC)c(OC)c(OC)c2-c2ccc(OC)c(=O)cc21`, which mutagenic call [3] is on record?
A: inactive; negative

Q: And the mutagenic call [5]?
A: inactive; negative

Q: And the mutagenic call (Test System: E. COLI, Strain/Indicator: WP2 (HCR), Metabolic Activation: NONE, Method: STANDARD PLATE)?
A: inactive; negative

Q: With `Nc1[nH]c(=O)nc2c1ncn2[C@H]1C[C@H](O)[C@@H](CO)O1` as the compound, how does the mutagenic call [10] read?
A: inactive; negative

Q: Which results are given for `CN(Cc1ccccc1)C(=O)CBr`?
A: mutagenic call (Test System: AMES SALMONELLA TYPHIMURIUM, Strain/Indicator: TA100, Metabolic Activation: MOUSE, LIVER, S-9, AROCLOR 1254, Method: STANDARD PLATE): inactive; negative; mutagenic call [5]: inactive; negative
